Where two headings read alike, the source gives them in different places.
What was measured:
[1] = tested on: CD14+ monocytes in PBMCs of breast cancer patients; assay: ENCORE 301 blood samples: flow cytometry of circulating monocyte populations, baseline vs C1D15; format: in vivo, human
Source text: (A) Gating strategy for analysis of CD14^+ monocytes (left panel), CD14^+HLA-DR^hi monocytes (red box, right upper panel), and CD14^+HLA-DR^low/neg monocytes (blue box, right lower panel) in PBMCs of breast cancer patients. Initially gated on single viable CD45^+ cells. […] (D) HLA-DR expression on CD14^+ monocytes in vitro. […] Median fluorescence intensity, MFI.
(§1) Blood samples were obtained on cycle 1 day 1 (C1D1; pre-treatment), C1D2, C1D8, and C1D15 for biomarker analyses. […] Cell populations were based on the following surface markers, in which “X−” means negative for marker X, “X+” means positive for marker X, “Xlow/−” means low levels to absence of marker X, and “Xhi” means high levels of expression of marker X:
(§2) Monocytes were analyzed for three populations: (1) CD14+; (2) CD14+, HLA-DRhi; and (3) CD14+, HLA-DRlow/−. PD-1, CTLA-4, and TIM-3 were measured on CD8+ T-cells, CD4+ T-cells, and Tregs, and CD40 was measured on myeloid derived suppressor cells.
(§3) The percent change in subsets at C1D15 vs. baseline was assessed based on the following surface markers: Lin-MDSC (lin;CD3,CD19,CD56)-HLA-DR-CD11b+CD33+), granulocytic MDSC (CD14−CD11b+CD33+), monocytic MDSC (Lin−HLA-DR−CD11b+CD33+CD14+), immature MDSC (Lin−HLA-DR−CD11b+CD33+CD14−), CD8+T-cells (CD4−CD8+), Foxp3−CD4+T-cells (CD8−CD4+Foxp3−), and Tregs (CD4+CD8−CD25hiFoxp3+). Monocytes were analyzed for three populations: CD14+, CD14+HLA-DRhi, and CD14+HLA-DR-low/negative. In addition, PD-1, CTLA-4, and TIM-3 were measured on T-cell subsets, and CD40 was measured on MDSCs.

[2] = tested on: myeloid derived suppressor cells in PBMCs of breast cancer patients; assay: ENCORE 301 blood samples: flow cytometry of circulating MDSC subsets and CD40 on MDSCs, baseline vs C1D15; format: in vivo, human
Source text: (A) Gating strategy for analysis of MDSC phenotypes in PBMCs of breast cancer patients. Initial gating was on single viable CD45^+ cells. Lineage (CD3, CD19, CD56)^−HLA-DR^−CD11b^+CD33^+ cells were defined as Lin^−MDSCs. The Lin^−MDSCs were further divided into monocytic MDSCs (Lin^−HLA-DR^−CD11b^+CD33^+CD14^+ cells) and immature MDSCs (Lin^−HLA-DR^−CD11b^+CD33^+CD14^− cells). CD14^−CD11b^+CD33^+ cells were defined as granulocytic MDSCs. […]
as §1
Myeloid derived suppressor cell: CD3−, CD19−, CD56−, HLA-DR−, CD11b+, CD33+.
PMN-MDSC: CD14−, CD11b+, CD33+.
M-MDSC: CD3−, CD19−, CD56−, HLA-DR−, CD11b+, CD33+, CD14+.
Immature MDSC: CD3−, CD19−, CD56−, HLA-DR−, CD11b+, CD33+, CD14−.
as §2, §3

[3] = tested on: advanced hormone receptor positive breast cancer; assay: ENCORE 301 randomized, placebo-controlled phase II trial: clinical outcome (PFS, OS); format: in vivo, human; conditions: the 34 patients analysed for immune subsets
Source text: Blood was collected from a subset of 49 patients (27 EE and 22 EP) representative of the 130 patients enrolled in ENCORE 301 on cycle 1 day 1 (C1D1; pretreatment), C1D2, C1D8, and C1D15 for biomarker analyses. Of these 49, C1D1 and C1D15 samples were available from 34 patients (20 EE and 14 EP) for further analysis of circulating immune subsets.

[4] = tested on: monocytic MDSCs, granulocytic MDSCs and Lineage cells from healthy donor PBMCs; assay: In vitro dead cell dye staining of PBMCs cultured with IL-6 and GM-CSF, then DMSO or entinostat; format: cell-based, human; conditions: entinostat 0.5 μM vs DMSO, two or three days, n=7
Protocol: (C) Absolute viable cell counts of MDSCs (upper panel, monocytic MDSCs; lower panel, granulocytic MDSCs). Fresh PBMCs (2×10^6 PBMCs/well) were cultured with IL-6 (10 ng/ml) and GM-CSF (10 ng/ml). […] (D) Percentage of dead cell dye-positive cells in the monocytic MDSCs (red line), granulocytic MDSCs (blue line), and Lineage cells (black line). […] Percentage of dead cell dye-positive cells among each population (monocytic MDSCs, granulocytic MDSCs, and lineage cells) was calculated. Mean±SD is shown (n=7).

[5] = in vivo; cited from earlier work
[6] = tested on: T-cell subsets in PBMCs of breast cancer patients; assay: ENCORE 301 blood samples: T-cell subsets and immune checkpoint receptor expression; format: in vivo, human; conditions: ENCORE 301 patients, C1D15 vs baseline
Protocol: FIG. 5 illustrates gating strategy for analysis of T-cell subsets in PBMCs of breast cancer patients. (A) Initial gating was on single viable cells. The CD4^+ T-cells were further divided into Tregs (CD8^−CD4^+CD25^hiFoxp3^+ cells) and Foxp3^−CD4^+ T-cells (CD8^−CD4^+Foxp3^− cells). (B) Immune checkpoint receptor expression was evaluated for CD8^+ T-cells, Foxp3^−CD4^+ T-cells, and Tregs. Representative histograms for PD-1 (left), CTLA-4 (middle), and TIM-3 (right) were shown.
CD8+ T-cell: CD4−, CD8+, Foxp3−.
CD4+ T-cell: CD8−, CD4+, Foxp3−.
Tregs: CD4+, CD8−, CD25hi, Foxp3+.
as §2, §3

[7] = tested on: squamous or non-squamous NSCLC; conditions: cited from earlier work
melanoma = conditions: cited from earlier work
[8] = tested on: advanced refractory malignancies; conditions: cited from earlier work
[9] = C1D1 vs C1D15, statistic not stated
[10] = breast cancer patients, EP n = 14, EE n = 20, mean
[11] = breast cancer patients, EP n = 14, EE n = 20, median

C=C1C[C@@H]2[C@H](CC[C@]3(C)C(=O)CC[C@@H]23)[C@@]2(C)C=CC(=O)C=C12 [EP]
HLA-DR levels (expression) on monocytes, change [1, 9]: −4.7% | change of (number of) HLA-DR+ monocytes [1, 9]: −11.38% | CD14+ change from baseline to C1D15, Mean (SD) [1, 10]: −0.58 (22.73) % | CD14+HLA-DR HI change from baseline to C1D15, Mean (SD) [1, 10]: −8.63 (17.77) % | CD14+HLA-DR LO/NEG change from baseline to C1D15, Mean (SD) [1, 10]: 13.45 (43.11) % | HLA-DR expression on CD14+ change from baseline to C1D15, Mean (SD) [1, 10]: −6.23 (18.77) % | CD14+ change from baseline to C1D15, Median (Min, Max) [1, 11]: 1.90 % | CD14+HLA-DR HI change from baseline to C1D15, Median (Min, Max) [1, 11]: −11.38 % | CD14+HLA-DR LO/NEG change from baseline to C1D15, Median (Min, Max) [1, 11]: 1.55 % | HLA-DR expression on CD14+ change from baseline to C1D15, Median (Min, Max) [1, 11]: −4.74 % | change of M-MDSCs (monocytic MDSC) [2, 9]: +1.97% | change of PMN-MDSCs (granulocytic MDSC) [2, 9]: +20.56% | change of immature MDSCs [2, 9]: −15.0% | CD40 on Lin-MDSCs change from baseline to C1D15, Mean (SD) [2, 10]: 14.85 (34.92) % | CD40 on g-MDSCs change from baseline to C1D15, Mean (SD) [2, 10]: 16.52 (32.07) % | CD40 on immature MDSCs change from baseline to C1D15, Mean (SD) [2, 10]: 18.64 (35.15) % | CD40 on m-MDSCs change from baseline to C1D15, Mean (SD) [2, 10]: 3.37 (25.69) % | Lin-MDSCs change from baseline to C1D15, Mean (SD) [2, 10]: 1.28 (83.31) % | g-MDSCs change from baseline to C1D15, Mean (SD) [2, 10]: 20.56 (68.45) % | immature MDSCs change from baseline to C1D15, Mean (SD) [2, 10]: 4.92 (94.50) % | m-MDSCs change from baseline to C1D15, Mean (SD) [2, 10]: 28.24 (86.60) % | CD40 on Lin-MDSCs change from baseline to C1D15, Median (Min, Max) [2, 11]: 3.37 % | CD40 on g-MDSCs change from baseline to C1D15, Median (Min, Max) [2, 11]: 10.52 % | CD40 on immature MDSCs change from baseline to C1D15, Median (Min, Max) [2, 11]: 9.00 % | CD40 on m-MDSCs change from baseline to C1D15, Median (Min, Max) [2, 11]: 1.57 % | Lin-MDSCs change from baseline to C1D15, Median (Min, Max) [2, 11]: −22.11 % | g-MDSCs change from baseline to C1D15, Median (Min, Max) [2, 11]: 3.82 % | immature MDSCs change from baseline to C1D15, Median (Min, Max) [2, 11]: −20.94 % | m-MDSCs change from baseline to C1D15, Median (Min, Max) [2, 11]: 1.97 % | Overall Survival (OS) [3]: 20.3 months | Progression Free Survival (PFS) [3]: 1.8 months

Nc1ccccc1NC(=O)c1ccc(CNC(=O)OCc2cccnc2)cc1 [Entinostat, N-(2-aminophenyl)-4-[N-(pyridine-3-yl)methoxycarbonylamino-methyl]-benzamide]
percentage of dead (dead cell dye-positive) granulocytic MDSCs ([4]; P=0.016): increased | percentage of dead (dead cell dye-positive) monocytic MDSCs ([4]; P=0.016): increased | percentage of dead (dead cell dye-positive) lineage cells (CD3+, CD19+, or CD56+) ([4]; P=0.7): not increased | half-life [5]: about 100 hours | alteration of expression of CTLA-4, PD-1, or TIM-3 on T-cell subsets [6]: did not significantly

MPDL3280A: human anti-PD-L1 mAb with engineered Fc domain
24-week PFS rate ([7]; non-squamous cell NSCLC): 46% | 24-week PFS rate ([7]; squamous cell NSCLC): 44%

Pembrolizumab: humanized monoclonal IgG4 anti-PD-1 antibody
overall objective response rate (ORR) (melanoma; immune-related response criteria, 44 of 117): 38% | patients with some AEs (melanoma; in vivo): 79% | rate of severe toxicities, less dose intense cohorts (melanoma; in vivo): < 10% | median progression free survival (melanoma; melanoma): exceeded 7 months | patients with some degree of tumor regression (melanoma; melanoma): 77% | maximum tolerated dose ([8]; 1, 3 and 10 mg/kg intravenously): not reached | patients with some tumor regression ([8]; dose-escalation study): Four | half-life ([8]; in vivo): 13.6 to 21.7 days
